Data: US9340554B2, “IRAK inhibitors and uses thereof” (Nimbus Iris, Inc., priority 2011, dated 2016)
Read-outs that look alike come from different tables or passages of the source.

Tests used:
[1] = system: LPS induced TNFα production in THP-1 cells; test: LPS induced THP-1 cell cytokine production assay, TNFα (HTRF); format: cell-based; conditions: Homo sapiens
Method: (§1) Provided compounds were also assayed in an LPS (Lipopolysacharide) induced THP-1 cell cytokine (TNFα and IL8) production assay. The protocol for this assay was as follows below. THP-1 cells from ATCC (TIB-202) were cultured in RPMI Medium 1640 (Invitrogen, Cat No. […] LPS-EK ultra pure (Invivogen, Cat No. tlrl-peklps) was used to induce IL8 and TNFα production, that was detected in the cell culture supernatant by IL8 HTRF kit (Cisbio, Cat No. 62IL8PEB) and TNFα HTRF kit (Cisbio, Cat No. 62[…]), as per manufacturer instructions. Cells were cultured in 96 well assay plates at 100,000 cells per well, and compounds diluted in final 0.3% DMSO were pre-incubated with cells for 1 hour prior to stimulation with 300 ng/mL LPS. […] The compound numbers correspond to the compound numbers in Table 1.

[2] = system: LPS induced IL8 production in THP-1 cells; test: LPS induced THP-1 cell cytokine production assay, IL8 (HTRF); format: cell-based; conditions: Homo sapiens
Method: as §1

[3] = molecular target: T1, IRAK4 (Homo sapiens, UniProt Q9NWZ3); test: IRAK-4 activity inhibition assay (Caliper, Peptide 8, 37 μM ATP); format: biochemical; conditions: 3.5 nM IRAK4, 1.5 μM Peptide 8, 37 μM ATP, 28° C. 40 minutes; read-out: IRAK-4 activity inhibition IC50
T1 construct: purchased CARNA Bioscience 09-145
T1 sequence (Q9NWZ3 1-460): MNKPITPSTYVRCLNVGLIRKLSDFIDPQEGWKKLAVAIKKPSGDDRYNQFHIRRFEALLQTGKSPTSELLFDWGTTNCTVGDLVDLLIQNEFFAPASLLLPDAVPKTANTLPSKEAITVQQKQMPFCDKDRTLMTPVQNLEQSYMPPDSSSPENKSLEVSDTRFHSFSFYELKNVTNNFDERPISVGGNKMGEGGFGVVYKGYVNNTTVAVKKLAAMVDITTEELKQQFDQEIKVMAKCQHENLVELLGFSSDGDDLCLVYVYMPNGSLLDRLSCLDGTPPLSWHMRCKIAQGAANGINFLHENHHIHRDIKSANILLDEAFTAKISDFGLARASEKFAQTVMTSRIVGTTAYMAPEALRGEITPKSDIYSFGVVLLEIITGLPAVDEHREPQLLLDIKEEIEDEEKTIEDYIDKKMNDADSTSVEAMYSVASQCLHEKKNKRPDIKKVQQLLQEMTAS

[4] = THP-1 cells, 300 ng/mL LPS, 1 hour pre-incubation, supernatant at 5 hours, read-out: TNFα production IC50
[5] = THP-1 cells, 300 ng/mL LPS, 1 hour pre-incubation, supernatant at 5 hours / 16 hours, read-out: IL8 production IC50

Row | Structure (SMILES) | IC50 [3] [nM] | IC50 [1, 4] [nM] | IC50 [2, 5] [nM] | IC50 ([1]; THP-1, read-out: TNFα production IC50) [nM] | IC50 ([2]; THP-1, read-out: IL8 production IC50) [nM]
1 | CN(C)[C@H]1CC[C@H](Nc2ncnc3sc4c(c23)CCC4)CC1 [Compound I-12, trans-N^1-(6,7-dihydro-5H-cyclopenta[4,5]thieno[2,3-d]pyrimidin-4-yl)-N^4,N^4-dimethylcyclohexane-1,4-diamine] |  |  |  | 500 to 1000 | 500 to 1000
2 | CN(CCc1ccccc1)[C@H]1CC[C@H](Nc2ncnc3sc4c(c23)CCC4)CC1 [Compound I-168, 1-N-methyl-1-N-(2-phenylethyl)-4-N-[7-thia-9,11-diazatricyclo[6.4.0.0^[2,6]]dodeca-1(8),2(6),9,11-tetraen-12-yl]cyclohexane-1,4-diamine] | < 5000 |  |  |  | 
3 | COCCN(C)[C@H]1CC[C@H](Nc2ncnc3sc4c(c23)CCC4)CC1 [Compound I-169, 1-N-(2-methoxyethyl)-1-N-methyl-4-N-[7-thia-9,11-diazatricyclo[6.4.0.0^[2,6]]dodeca-1(8),2(6),9,11-tetraen-12-yl]cyclohexane-1,4-diamine] | < 5000 |  |  |  | 
4 | CN(C)[C@H]1CC[C@H](Nc2nc(Nc3ccccc3)nc3sc4c(c23)CCC4)CC1 [Compound I-201, 12-N-[4-(dimethylamino)cyclohexyl]-10-N-phenyl-7-thia-9,11-diazatricyclo[6.4.0.0[2,6]]dodeca-1(8),2(6),9,11-tetraene-10,12-diamine] |  | 1000 to 5000 | 1000 to 5000 |  | 

Continued, in another order:

Row | IC50 [3] [nM] | IC50 [1, 4] [nM] | IC50 [2, 5] [nM] | Structure (SMILES) | IC50 ([1]; THP-1, read-out: TNFα production IC50) [nM] | IC50 ([2]; THP-1, read-out: IL8 production IC50) [nM]
5 | < 5000 | 1000 to 5000 | 500 to 1000 | CN(CC(=O)N1CCCC1)[C@H]1CC[C@H](Nc2ncnc3sc4c(c23)CCC4)CC1 [Compound I-124, 2-[methyl[4-([7-thia-9,11-diazatricyclo[6.4.0.0[2,6]]dodeca-1(12),2(6),8,10-tetraen-12-yl]amino)cyclohexyl]amino]-1-(pyrrolidin-1-yl)ethan-1-one] |  | 
6 | < 5000 | 1000 to 5000 | 1000 to 5000 | CN(CC(=O)N1CCCC1)[C@H]1CC[C@H](Oc2ncnc3sc4c(c23)CCC4)CC1 [Compound I-133] |  | 
